Laboratory results as given in BindingDB's records for PubMed 1656026 (University of Nebraska, 1991).
Values joined by “and” are separate entries in the source; they are usually repeats but may differ in a detail not shown here. Identical values can stand only once. Counter-ions that a name gives are not always drawn. Numbered stars: 1 amine (or outer) side, 2 acyl side, 3 side chain; on linkers, the order of the positions; unused ones are H or OH. Square brackets hold non-standard residues; d marks the D form. Peptide text beside a SMILES is read from it. * marks the point of attachment. Cyclohexylacetyl(1-SH) = O=C(CC1(S)CCCCC1)*; X1 = O=C(C(C=S)N[*:1])[*:2]

Assays:
[1] = target: T1, Alpha-2B adrenergic receptor (Rattus norvegicus, UniProt P19328)
T1 sequence (P19328 whole entry): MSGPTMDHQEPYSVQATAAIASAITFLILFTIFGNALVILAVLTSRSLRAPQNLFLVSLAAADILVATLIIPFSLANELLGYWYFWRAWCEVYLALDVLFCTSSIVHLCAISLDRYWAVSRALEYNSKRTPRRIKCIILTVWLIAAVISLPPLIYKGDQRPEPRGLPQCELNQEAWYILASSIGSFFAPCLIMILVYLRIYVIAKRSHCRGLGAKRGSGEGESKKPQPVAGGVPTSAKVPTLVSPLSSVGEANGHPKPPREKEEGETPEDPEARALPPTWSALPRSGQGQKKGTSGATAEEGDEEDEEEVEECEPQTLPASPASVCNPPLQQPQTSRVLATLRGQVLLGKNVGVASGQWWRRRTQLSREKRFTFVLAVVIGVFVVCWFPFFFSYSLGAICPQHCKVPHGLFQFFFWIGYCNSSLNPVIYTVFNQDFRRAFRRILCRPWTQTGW

[2] = target: Alpha-2C adrenergic receptor
[3] = target: T2, Alpha-2A adrenergic receptor (Homo sapiens, UniProt P08913)
T2 sequence (P08913 whole entry): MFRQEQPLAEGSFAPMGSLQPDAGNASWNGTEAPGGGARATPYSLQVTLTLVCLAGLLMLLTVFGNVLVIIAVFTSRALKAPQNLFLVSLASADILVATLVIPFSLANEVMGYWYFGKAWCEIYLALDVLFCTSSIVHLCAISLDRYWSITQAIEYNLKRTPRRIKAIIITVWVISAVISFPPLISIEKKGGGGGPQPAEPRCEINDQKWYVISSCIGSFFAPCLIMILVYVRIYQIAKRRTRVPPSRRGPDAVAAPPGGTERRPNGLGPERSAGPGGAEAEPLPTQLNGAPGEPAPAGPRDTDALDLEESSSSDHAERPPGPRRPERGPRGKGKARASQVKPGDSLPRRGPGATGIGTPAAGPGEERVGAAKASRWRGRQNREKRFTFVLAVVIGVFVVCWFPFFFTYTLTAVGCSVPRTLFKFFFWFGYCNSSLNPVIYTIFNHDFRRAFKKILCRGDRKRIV

[4] = target: T3, Alpha-2C adrenergic receptor (Didelphis virginiana, UniProt P35405)
T3 sequence (P35405 whole entry): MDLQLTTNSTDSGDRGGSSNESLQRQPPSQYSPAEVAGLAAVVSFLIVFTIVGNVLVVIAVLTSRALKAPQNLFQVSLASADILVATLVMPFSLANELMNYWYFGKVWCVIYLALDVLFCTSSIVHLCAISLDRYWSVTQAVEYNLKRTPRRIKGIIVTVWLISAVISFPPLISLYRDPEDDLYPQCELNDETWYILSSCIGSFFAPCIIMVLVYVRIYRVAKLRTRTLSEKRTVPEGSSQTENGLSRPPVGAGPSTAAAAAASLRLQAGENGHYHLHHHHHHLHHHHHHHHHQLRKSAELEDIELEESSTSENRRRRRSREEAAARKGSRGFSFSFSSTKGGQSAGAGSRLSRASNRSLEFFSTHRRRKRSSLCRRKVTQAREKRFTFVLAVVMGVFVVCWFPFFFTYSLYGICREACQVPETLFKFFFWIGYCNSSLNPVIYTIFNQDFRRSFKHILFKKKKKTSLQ

SMILES	Ki [1] [nM]	Ki [2]	Ki [3] [nM]	Ki [4] [nM]
CCCN(CCC)C1CCc2cccc(O)c2C1 (stereo unspecified)	148	117 nM	186	–
CC(C)(C)[C@]1(O)CCN2C[C@H]3c4ccccc4CCc4cccc(c43)[C@@H]2C1	12	42 nM	53	–
c1ccc2c(c1)OCC(C1=NCCN1)O2 (stereo unspecified)	–	0.56 nM	–	2.4
CN1c2ccc(F)cc2CC1C1=NCCN1 (stereo unspecified)	1	0.48 nM	0.4	–
Clc1ccc2nsnc2c1NC1=NCCN1	76	75 nM	–	–
OCCN1CCN(CCCN2c3ccccc3Sc3ccc(C(F)(F)F)cc32)CC1 [2-[4-[3-[2-(trifluoromethyl)phenothiazin-10-yl]propyl]piperazin-1-yl]ethanol;hydrochloride]	320	122 nM	304	–
O=C(c1ccc(F)cc1)C1CCN(CCn2c(=O)[nH]c3ccccc3c2=O)CC1 [3-(2-{4-[(4-fluorophenyl)carbonyl]piperidin-1-yl}ethyl)-1,2,3,4-tetrahydroquinazoline-2,4-dione]	226	159 nM	–	–
CN1CCN(C2=c3ccccc3=Nc3ccc(Cl)cc3N2)CC1 [6-chloro-10-(4-methylpiperazin-1-yl)-2,9-diazatricyclo[9.4.0.0^{3,8}]pentadeca-1,3(8),4,6,10,12,14-heptaene]	–	4.2 nM	–	–
O=C1NCN(c2ccccc2)C12CCN(CC1COc3ccccc3O1)CC2 (stereo unspecified) [8-(2,3-Dihydro-benzo[1,4]dioxin-2-ylmethyl)-1-phenyl-1,3,8-triaza-spiro[4.5]decan-4-one]	0.34	0.59 nM	13	0.67
CSc1ccc2c(c1)N(CC[C@@H]1CCCCN1C)c1ccccc1S2 [10-[2-(1-Methyl-piperidin-2-yl)-ethyl]-2-methylsulfanyl-10H-phenothiazine (thioridazine)]	–	549 nM	–	–
COC(=O)C1=CO[C@@H](C)[C@@H]2CN3CCc4c([nH]c5ccccc45)[C@H]3C[C@H]12 [AKUAMMIGINE]	208	12 nM	130	–
COC(=O)C1=COC(C)C2CN3CCc4c([nH]c5ccccc45)C3CC12 (stereo unspecified) [Ajmalicine]	–	1.1 nM and 0.3 nM	–	–
CN1C[C@H](Cn2ccnc2-c2ccccc2)C[C@@H]2c3cccc4[nH]c(Br)c(c34)C[C@H]21 [BAM-1303]	26	0.38 nM	2.5	–
O=C1c2ccccc2CCC1CNCCc1ccc(O)cc1 (stereo unspecified) [CAS_34772]	0.68	0.5 nM	0.93	–
Clc1cccc2c1CN(NC1=NCCN1)C2 [CAS_76727-72-5]	0.14	0.08 nM	0.06	–
Cc1nc2n(c(=O)c1CCN1CCC(C(=O)c3ccc(F)cc3)CC1)CCS2 [CAS_86487-64-1]	25	51 nM	90	–
CS(=O)(=O)NCCN(C1CCN2CCc3ccccc3C2C1)S(C)(=O)=O (stereo unspecified) [CAS_125697]	5.2	0.56 nM	11	–
Cc1cccc(C)c1CCc1cnc[nH]1 [CAS_133305]	18	14 nM	8.7	–
CCCS(=O)(=O)N(C)C1CCN2CCc3ccccc3C2C1 (stereo unspecified) [CAS_133816]	1.9	0.86 nM	2.2	–
CCOc1ccc(CC(NC(=O)CC2(S)CCCCC2)C(=O)NC(Cc2ccccc2)C(=O)NC(C(=O)NC(CC(N)=O)C(=O)NC(C=S)C(=O)NC(CCCCN)C(N)=O)C(C)C)cc1 (stereo unspecified) [CAS_196343] ({Cyclohexylacetyl(1-SH)}-Y(Et)FVN[X1]K-NH2; configuration not given here)	0.48	0.14 nM	0.36	–

SMILES	Ki [1] [nM]	Ki [2]	Ki [3] [nM]	Ki [4] [nM]
CN1CCN(C2=Nc3ccccc3Sc3nccn32)CC1 [CGS-10746B]	574	804 nM	3600	–
Clc1cncc(N2CCNCC2)n1 [L-630,571]	125	126 nM	153	–
c1cn2ccnc2c(N2CCNCC2)n1 [L-639,019]	34	88 nM	35	–
Fc1cccnc1N1CCNCC1 [L-644,763]	23	20 nM	20	–
CN1CCC2(CCN3CCc4c(oc5ccccc45)C3C2)N(C)C1=O (stereo unspecified) [MK-912]	0.26	0.03 nM	0.42	–
Oc1ccc(C2CNCCc3c2cc(O)c(O)c3Cl)cc1 (stereo unspecified) [MLS001401388]	91	22 nM	–	–
CN1CCc2cccc(Cl)c2CC1 [MLS002172470]	1.8	2.7 nM	2.4	–
CCCCS(=O)(=O)N(C)[C@H]1CCN2CCc3ccccc3[C@H]2C1 [N-[(2S,11bR)-2,3,4,6,7,11b-hexahydro-1H-benzo[a]quinolizin-2-yl]-N-methylbutane-1-sulfonamide hydrochloride]	1.7	0.46 nM	1.4	–
C=CCN1Cc2ccccc2-c2ccccc2C1 [NSC_8966]	5.3	14 nM	38	–
CN(C)CCCN1c2ccc(O)cc2Sc2ccc(Cl)cc21 [NSC_16414]	59	325 nM	–	–
CCC1(c2cnc[nH]2)Cc2ccccc2C1 [NSC_71310]	–	0.46 nM	0.33	2.74
COc1ccccc1N1CCN(CCC2C(=O)c3ccccc3C(C)(C)C2=O)CC1 (stereo unspecified) [NSC_122211]	1.6	13 nM	171	48
CCOC1(C2=NCCN2)COc2ccccc2O1 (stereo unspecified) [NSC_125992]	0.58	0.24 nM	0.2	–
COc1cccc(OC)c1OCCNCC1Oc2ccccc2OC1c1ccccc1 (stereo unspecified) [NSC_185453]	8.7	0.27 nM	1.2	1.6
c1ccc2c(c1)OCC(CN1CCCCC1)O2 (stereo unspecified) [Piperoxan]	2	1.3 nM	5.4	–
CC(C)=CCOc1ccc(Cl)c2c1CCN(C)CC2 [SK&F-104078]	49	43 nM	32	–
Cc1cc(C(C)(C)C)c(O)c(C)c1CC1=NCCN1 [SMR000059324]	–	–	–	73
c1ccc(CC2=NCCN2)cc1 [Tolazoline]	113	222 nM	–	–
CN(C)CCCN1c2ccccc2Sc2ccc(Cl)cc21 [[3-(2-Chloro-phenothiazin-10-yl)-propyl]-dimethyl-amine(Chlorpromazine)]	–	–	–	116
COc1cc2nc(N3CCN(C(=O)c4ccco4)CC3)nc(N)c2cc1OC [[3H]-Minipress]	–	15 nM	–	36
